Results on 11 molecules are retold here after patent US12173018B2, “Penicillin-binding protein inhibitors” (priority 2018, dated 2024).

Structures are written as SMILES. Converted amounts (≈) assume the structure as drawn. Where two headings read alike, the source gives them in different places. Where only a bound is given, the exact number is not on record here.

For one experiment, the system named is A. baumannii ATCC 19606. Nature of the experiment: Broth microdilution MIC, A. baumannii ATCC 19606. It is filed as cell-based. Particulars: Acinetobacter baumannii. The procedure, abridged:
(§1)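 CLSI broth microdilution in cation-supplemented Mueller-Hinton broth; 2-fold compound dilutions inoculated at 5×10^5 CFU/mL from a 3-5 h log-phase culture. Plates incubated 16-20 hours at 37° C; MIC read visually as lowest concentration with no growth.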
(Dilution methods test growth across graded concentrations, often in twofold steps.)

The next experiment deals with P. aeruginosa PAO1. Nature of the experiment: Broth microdilution MIC, P. aeruginosa PAO1. It is filed as cell-based. Particulars: Pseudomonas aeruginosa. The procedure, abridged: as §1
In a further experiment the test system is N. gonorrhoeae FA1090. Nature of the experiment: Liquid broth MIC, N. gonorrhoeae FA1090. In kind it is cell-based. To be noted: Neisseria gonorrhoeae; N. gonorrhoeae FA1090, liquid broth; read-out: Minimum Inhibitory Concentration, N. gonorrhoeae FA1090. The procedure, abridged:
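MIC taken by eye as the lowest well lacking growth after 40-42 h at 36° C under 5% CO2. Compounds were 2-fold serially diluted; the starting inoculum of 5×10^5 CFU/mL came from direct colony suspensions grown on Kellogg's-supplemented GC agar.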

For a further experiment, the target named is E. coli PBP3 (Escherichia coli (strain K12), UniProt P0AD68). Nature of the experiment: E. coli PBP3 Bocillin-FL fluorescence polarization competition binding assay. Put shortly: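 This was a fluorescence polarization competition with fluorescent penicillin Bocillin-FL (0.1 μM final), read at 490/520 nm for 60 min immediately after its addition. The buffer was Hepes pH 8.0 with 300 mM NaCl and 5% glycerol, containing 1.5 μM PBP and test inhibitor up to 1000 μM. Potency is expressed as EC50 for reducing probe binding.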
Sequence of E. coli PBP3 (P0AD68 whole entry): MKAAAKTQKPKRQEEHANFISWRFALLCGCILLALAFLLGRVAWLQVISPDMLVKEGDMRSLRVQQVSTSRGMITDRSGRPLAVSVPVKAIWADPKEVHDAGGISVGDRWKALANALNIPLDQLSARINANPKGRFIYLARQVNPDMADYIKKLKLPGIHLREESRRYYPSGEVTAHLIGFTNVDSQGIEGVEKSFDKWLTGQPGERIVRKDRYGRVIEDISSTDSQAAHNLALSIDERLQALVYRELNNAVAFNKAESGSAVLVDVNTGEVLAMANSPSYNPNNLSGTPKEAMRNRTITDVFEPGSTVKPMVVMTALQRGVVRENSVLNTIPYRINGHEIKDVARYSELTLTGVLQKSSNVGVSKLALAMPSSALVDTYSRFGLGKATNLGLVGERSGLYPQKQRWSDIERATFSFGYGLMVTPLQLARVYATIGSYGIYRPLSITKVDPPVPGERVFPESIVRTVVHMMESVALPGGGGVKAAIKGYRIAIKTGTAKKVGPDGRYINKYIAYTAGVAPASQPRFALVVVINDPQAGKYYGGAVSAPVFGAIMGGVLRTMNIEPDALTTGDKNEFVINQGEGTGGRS

Another experiment concerns P. aeruginosa ATCC 35151. Briefly: microbe, parasite or virus in culture. To be noted: Pseudomonas aeruginosa, ATCC35151; hyper-permeable P. aeruginosa ATCC 35151; read-out: MIC P. aeruginosa ATCC 35151. In kind it is cell-based. Put shortly: as §1
In experiment [1] the test system is P. aeruginosa (ΔmexAB-oprM). Briefly: microbe, parasite or virus in culture. It is filed as cell-based. Particulars: Pseudomonas aeruginosa, read-out: MIC P. aeruginosa ΔmexAB-OprM. The procedure, abridged: as §1
Setting [2] is: ATCC19606, A. baumannii ATCC 19606, broth microdilution, read-out: MIC A. baumannii ATCC 19606.
Setting [3] is: P. aeruginosa PAO1, broth microdilution, read-out: MIC P. aeruginosa PAO1.
The mark [4] stands for this setting: ATCC19606, read-out: MIC A. baumannii ATCC 19606.
Where [5] appears, read: PAO1, read-out: MIC P. aeruginosa PAO1.
The mark [6] stands for this setting: fluorescence polarization competition binding with Bocillin-FL, read-out: E. coli K12 PBP3 Potency.

As to `CCN1CCN(C(=O)N[C@@H](C(=O)N[C@H]2Cc3cccc(C(=O)O)c3OB2O)c2ccc(O)c(O)c2Cl)C(=O)C1=O` [Example 190, (R)-3-((R)-2-(2-chloro-3,4-dihydroxyphenyl)-2-(4-ethyl-2,3-dioxopiperazine-1-carboxamido)acetamido)-2-hydroxy-3,4-dihydro-2H-benzo[e][1,2]oxaborinine-8-carboxylic acid], the MIC with A. baumannii ATCC 19606 (setting [2]) was less than 0.25 µg/mL; with P. aeruginosa PAO1 (setting [3]), 0.5 to 1 µg/mL; in the experiment on N. gonorrhoeae FA1090 it was 0.25 to 0.5 µg/mL (≈ 0.435 to 0.87 µM); with P. aeruginosa ATCC 35151, less than 0.25 µg/mL; in experiment [1], less than 0.25 µg/mL. For the same molecule, on E. coli PBP3, the EC50 was 30 to 500 µM.

In the case of `CCN1C[C@@H](C)N(C(=O)NC(C(=O)N[C@H]2Cc3cccc(C(=O)O)c3OB2O)c2ncc(O)cc2F)C(=O)C1=O` (stereo partly drawn) [Example 191, (3R)-3-(2-((R)-4-ethyl-6-methyl-2,3-dioxopiperazine-1-carboxamido)-2-(3-fluoro-5-hydroxypyridin-2-yl)acetamido)-2-hydroxy-3,4-dihydro-2H-benzo[e][1,2]oxaborinine-8-carboxylic acid], the MIC in the experiment on A. baumannii ATCC 19606 (setting [2]) is more than 128 µg/mL; with P. aeruginosa PAO1 (setting [3]), more than 128 µg/mL; in the experiment on N. gonorrhoeae FA1090, 0.25 to 0.5 µg/mL (≈ 0.449 to 0.897 µM); in the experiment on P. aeruginosa ATCC 35151, 2 to 4 µg/mL; in experiment [1], 32 to 64 µg/mL. The EC50 at E. coli PBP3 lay in the range of 30 to 500 µM.

In the case of `CCN1CCN(C(=O)NC(C(=O)N[C@H]2Cc3ccc(F)c(C(=O)O)c3OB2O)c2ccc(O)c(O)c2Cl)C(O)C1=O` (stereo partly drawn) [Example 194, (3R)-3-(2-(2-chloro-3,4-dihydroxyphenyl)-2-(4-ethyl-2-hydroxy-3-oxopiperazine-1-carboxamido)acetamido)-7-fluoro-2-hydroxy-3,4-dihydro-2H-benzo[e][1,2]oxaborinine-8-carboxylic acid], the MIC was 0.5 to 1 µg/mL in the experiment on A. baumannii ATCC 19606 (setting [4]); 8 to 16 µg/mL in the experiment on P. aeruginosa PAO1 (setting [5]); 4 to 8 µg/mL (≈ 6.73 to 13.5 µM) with N. gonorrhoeae FA1090; less than 0.25 µg/mL in the experiment on P. aeruginosa ATCC 35151; 0.5 to 1 µg/mL in experiment [1]. The molecule also displayed an EC50 on E. coli PBP3 of 30 to 500 µM.

As for `NS(=O)(=O)c1ccc(C(NC(=O)N2CCN(CCF)C(=O)C2=O)C(=O)N[C@H]2Cc3cccc(C(=O)O)c3OB2O)c(F)c1` (stereo partly drawn) [Example 204, (3R)-3-(2-(2-fluoro-4-sulfamoylphenyl)-2-(4-(2-fluoroethyl)-2,3-dioxopiperazine-1-carboxamido)acetamido)-2-hydroxy-3,4-dihydro-2H-benzo[e][1,2]oxaborinine-8-carboxylic acid], the MIC is more than 128 µg/mL in the experiment with A. baumannii ATCC 19606 (setting [2]); more than 128 µg/mL in the experiment with P. aeruginosa PAO1 (setting [3]); 0.25 to 0.5 µg/mL (≈ 0.401 to 0.802 µM) with N. gonorrhoeae FA1090; 0.5 to 1 µg/mL in the experiment on P. aeruginosa ATCC 35151; 8 to 16 µg/mL in experiment [1]. The EC50 at E. coli PBP3 (setting [6]) was less than 30 µM.

For the molecule `CCN1CCN(C(=O)NC(C(=O)N[C@H]2Cc3cccc(C(=O)O)c3OB2O)c2nc(N)sc2F)C(=O)C1=O` (stereo partly drawn) [Example 205, (3R)-3-(2-(2-amino-5-fluorothiazol-4-yl)-2-(4-ethyl-2,3-dioxopiperazine-1-carboxamido)acetamido)-2-hydroxy-3,4-dihydro-2H-benzo[e][1,2]oxaborinine-8-carboxylic acid], the MIC was 32 to 64 µg/mL in the experiment on A. baumannii ATCC 19606 (setting [2]); more than 128 µg/mL with P. aeruginosa PAO1 (setting [3]); less than 0.125 µg/mL in the experiment with N. gonorrhoeae FA1090; less than 0.25 µg/mL in the experiment with P. aeruginosa ATCC 35151; 2 to 4 µg/mL in experiment [1]. The EC50 on E. coli PBP3 (setting [6]) was less than 30 µM.

For the molecule `CCN1C[C@H](C)N(C(=O)NC(C(=O)N[C@H]2Cc3ccc(F)c(C(=O)O)c3OB2O)c2ccc(O)c(O)c2Cl)C(=O)C1=O` (stereo partly drawn) [Example 206, (3R)-3-(2-(2-chloro-3,4-dihydroxyphenyl)-2-((S)-4-ethyl-6-methyl-2,3-dioxopiperazine-1-carboxamido)acetamido)-7-fluoro-2-hydroxy-3,4-dihydro-2H-benzo[e][1,2]oxaborinine-8-carboxylic acid], the MIC in the experiment with A. baumannii ATCC 19606 (setting [2]) was less than 0.25 µg/mL; in the experiment on P. aeruginosa PAO1 (setting [3]), 2 to 4 µg/mL; in the experiment on N. gonorrhoeae FA1090, 0.25 to 0.5 µg/mL (≈ 0.412 to 0.824 µM); with P. aeruginosa ATCC 35151 it was less than 0.25 µg/mL; in experiment [1], less than 0.25 µg/mL. Besides, on E. coli PBP3 (setting [6]), the EC50 is less than 30 µM.

As to `CCN1C[C@H](C)N(C(=O)NC(C(=O)N[C@H]2Cc3ccc(F)c(C(=O)O)c3OB2O)c2ncc(O)cc2F)C(=O)C1=O` (stereo partly drawn) [Example 208, (3R)-3-(2-((S)-4-ethyl-6-methyl-2,3-dioxopiperazine-1-carboxamido)-2-(3-fluoro-5-hydroxypyridin-2-yl)acetamido)-7-fluoro-2-hydroxy-3,4-dihydro-2H-benzo[e][1,2]oxaborinine-8-carboxylic acid], the MIC with A. baumannii ATCC 19606 (setting [2]) is more than 128 µg/mL; in the experiment on P. aeruginosa PAO1 (setting [3]) it was more than 128 µg/mL; with N. gonorrhoeae FA1090 it was 0.25 to 0.5 µg/mL (≈ 0.435 to 0.869 µM); in the experiment on P. aeruginosa ATCC 35151, less than 0.25 µg/mL; in experiment [1], 32 to 64 µg/mL. At E. coli PBP3 (setting [6]), the EC50 was less than 30 µM.

Regarding `CCN1CCN(C(=O)NC(C(=O)N[C@H]2Cc3cccc(C(=O)O)c3OB2O)c2ccc(S(N)(=O)=O)c(F)c2)C(=O)C1=O` (stereo partly drawn) [Example 210, (3R)-3-(2-(4-ethyl-2,3-dioxopiperazine-1-carboxamido)-2-(3-fluoro-4-sulfamoylphenyl)acetamido)-2-hydroxy-3,4-dihydro-2H-benzo[e][1,2]oxaborinine-8-carboxylic acid], the MIC was more than 128 µg/mL in the experiment on A. baumannii ATCC 19606 (setting [2]); more than 128 µg/mL in the experiment with P. aeruginosa PAO1 (setting [3]); less than 0.125 µg/mL in the experiment on N. gonorrhoeae FA1090; 0.5 to 1 µg/mL in the experiment on P. aeruginosa ATCC 35151; 2 to 4 µg/mL in experiment [1]. Moreover, the EC50 at E. coli PBP3 is 30 to 500 µM.

`CCN1CCN(C(=O)NC(C(=O)N[C@H]2Cc3cccc(C(=O)O)c3OB2O)c2ccc(C(=O)O)cc2)C(=O)C1=O` (stereo partly drawn) [Example 212, (3R)-3-(2-(4-carboxyphenyl)-2-(4-ethyl-2,3-dioxopiperazine-1-carboxamido)acetamido)-2-hydroxy-3,4-dihydro-2H-benzo[e][1,2]oxaborinine-8-carboxylic acid]: the MIC is more than 128 µg/mL with A. baumannii ATCC 19606 (setting [4]); 32 to 64 µg/mL with P. aeruginosa PAO1 (setting [5]); less than 0.125 µg/mL with N. gonorrhoeae FA1090; less than 0.25 µg/mL with P. aeruginosa ATCC 35151; 8 to 16 µg/mL in experiment [1]. Besides, the EC50 at E. coli PBP3 (setting [6]) was less than 30 µM.

For `O=C(O)c1cccc2c1OB(O)[C@@H](NC(=O)C(NC(=O)N1CCN(CCF)C(=O)C1=O)c1ccc(S(=O)(=O)NCCO)cc1)C2` (stereo partly drawn) [Example 213, (3R)-3-(2-(4-(2-fluoroethyl)-2,3-dioxopiperazine-1-carboxamido)-2-(4-(N-(2-hydroxyethyl)sulfamoyl)phenyl)acetamido)-2-hydroxy-3,4-dihydro-2H-benzo[e][1,2]oxaborinine-8-carboxylic acid], the MIC in the experiment on A. baumannii ATCC 19606 (setting [2]) was more than 128 µg/mL; with P. aeruginosa PAO1 (setting [3]), more than 128 µg/mL; in the experiment with N. gonorrhoeae FA1090, 0.25 to 0.5 µg/mL (≈ 0.385 to 0.77 µM); with P. aeruginosa ATCC 35151, 2 to 4 µg/mL; in experiment [1] it was 8 to 16 µg/mL. For the same molecule, on E. coli PBP3, the EC50 fell in the range of 30 to 500 µM.

Regarding `CCN1CCN(C(=O)NC(C(=O)N[C@H]2Cc3ccc(Cl)c(C(=O)O)c3OB2O)c2ncc(O)cc2F)C(=O)C1=O` (stereo partly drawn) [Example 216, (3R)-7-chloro-3-(2-(4-ethyl-2,3-dioxopiperazine-1-carboxamido)-2-(3-fluoro-5-hydroxypyridin-2-yl)acetamido)-2-hydroxy-3,4-dihydro-2H-benzo[e][1,2]oxaborinine-8-carboxylic acid], the MIC in the experiment with A. baumannii ATCC 19606 (setting [2]) is more than 128 µg/mL; in the experiment with P. aeruginosa PAO1 (setting [3]), more than 128 µg/mL; in the experiment with N. gonorrhoeae FA1090, 0.25 to 0.5 µg/mL (≈ 0.433 to 0.865 µM); in the experiment with P. aeruginosa ATCC 35151 it was less than 0.25 µg/mL; in experiment [1], 32 to 64 µg/mL. Also, the EC50 at E. coli PBP3 (setting [6]) was less than 30 µM.
